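96-well plates; 48 h exposure; 5 concentrations. Endpoints by linear interpolation between flanking doses. Not reached: highest tested concentration assigned. The concentration for 50% growth inhibition is given as GI50. Definition used: TGI = concentration required for complete inhibition of growth.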

The subject of the first assay is OVCAR-8 ovarian. The assay is described as follows: NCI tumour cell line growth inhibition, 48 h.
As to `CCC[CH2][Sn]1([CH2]CCC)[O]C(=O)c2cccnc2[O]1`, the GI50 is 2.25 µM and the TGI was determined as 7.64 µM.
As for `COC1CC(OS(=O)(=O)c2ccc([N+](=O)[O-])cc2)C(OC(=O)c2ccccc2)C(C)O1` (centres undefined), the TGI was more than 100 µM.
The same measure, in the same setting: the result for `CCOc1ccccc1N1C(=O)C(=O)C(c2nc3ccccc3o2)C(=O)C1=O` reads more than 100 µM.
On to `C=C1C(=O)O[C@H]2[C@H]1CC/C(COC(=O)NCc1cn(C)c3ccccc13)=C\CC[C@@]1(C)O[C@@H]21`, for which the GI50 is 1.4 µM and the TGI came out at 5.18 µM.
Turning to `CCS(CC)(CC)CC1CCCC2=CCC(P(=O)(c3ccccc3)c3ccccc3)CC21` (centres undefined), the TGI is 31.4 µM.
For `COc1ccc2n[se]nc2c1`, the TGI is more than 100 µM.
On the same count and under the same terms, under `Cn1cc(C(=O)NCCC(=N)N)cc1NC(=O)C1=[N+](C)C=C(NC(=O)c2cccc(C(=O)NC3=CC(C(=O)Nc4cc(C(=O)NCCC(=N)N)cn4C)=[N+](C)C3)c2)C1` stands more than 100 µM.

The subject of the next assay is MDA-MB-231 breast. The assay is described as follows: NCI tumour cell line growth inhibition, 48 h.
For the compound `COc1cc2c(cc1C)NC(=O)/C2=C/c1ccccn1`, the GI50 was 2.02 µM and the TGI was found to be 7.96 µM.
For `COc1ccc(-c2c[nH]c(C(=O)O)c2-c2cc(OC)c(OC)c(OC)c2)cc1`, in that order: 12.4 µM and more than 100 µM.
Take `C=C(C)C(=O)O[C@H]1CC(=C)[C@@H]2C[C@H](O)[C@](O)(CCl)[C@@H]2[C@H]2OC(=O)C(=C)[C@@H]21`: the GI50 is 4.28 µM and the TGI is 13.6 µM.
Taken in the same sequence, the figures for `COc1cnc2c(c1)C(=O)c1c-2n(CCCn2ccnc2)c(=O)c2cc(F)ccc12` were 0.35 µM and 2.17 µM.
For the compound `C=C1C(=O)O[C@H]2[C@H]1CC/C(COC(=O)NCc1cn(C)c3ccccc13)=C\CC[C@@]1(C)O[C@@H]21`, the GI50 is 1.68 µM and the TGI is 3.54 µM.

The next assay deals with SF-539 CNS. The assay can be described thus: NCI tumour cell line growth inhibition, 48 h.
On to `CCN(CC)c1c(C(=O)/C=C/c2ccc(OC)cc2)c(-c2ccccc2)nn(C)c1=O`, for which the TGI was found to be 45.9 µM.
The compound `CN1C(=Nc2ccccc2)SC1=Nc1ccccc1` returned a TGI of more than 100 µM.
`Oc1ccccc1/C=C/c1csnn1`: the TGI is more than 100 µM.
Same read-out and setting: the result for `CC(=O)CC(=O)OC1CC(C)CCC1C(C)C` (centres undefined) reads more than 100 µM.
`CP1(=O)CCCCC1` gave a TGI of more than 100 µM.
On the same count and under the same terms, under `Cc1ccc(S(=O)(=O)OC2CSS(=O)CC2OS(=O)(=O)c2ccc(C)cc2)cc1` (centres undefined) stands 29.2 µM.
For the compound `COc1cc2c(cc1C)NC(=O)/C2=C/c1ccccn1`, the GI50 was 0.024 µM and the TGI turned out to be 2.47 µM.
With `O=[N+]([O-])c1cc(C(F)(F)F)cc([N+](=O)[O-])c1CCl`, the TGI turned out to be 9.23 µM.
Still for that read-out and setting: under `Nc1ccnc(=O)[nH]1` stands more than 100 µM.
The compound `COC(=O)/C(C)=C(/CCC1(C)OCCO1)O[Si](C)(C)C` registered a TGI of more than 100 µM.
Same read-out and setting: under `CCOC(=O)N1CCN(C=S)CC1` stands more than 100 µM; under `CCc1cc(C(=O)OC)cn1C(=N)c1ccc(Cl)cc1`, more than 100 µM.
The same measure, in the same setting: under `Cc1cc(=O)n(-c2ccccc2C)c(C)n1` stands more than 100 µM; under `Oc1c(C(Nc2cccc3cccnc23)c2ccccc2)ccc2cccnc12` (centres undefined), 39 µM.
Same read-out and setting: under `COc1ccc(Br)c(N/N=C2\CCCNC2=O)c1` stands more than 100 µM.
On to `COc1cc2c(c(OC)c1OC)-c1ccc(SC)c(=O)cc1C(CO)C2` (centres undefined), for which the GI50 was less than 0.01 µM.
In turn, `Cc1ccc2nc(NC(=O)C(=O)C(C#N)c3nc4ccccc4s3)sc2c1` (centres undefined) returned a TGI of 40.7 µM.
`CC(C)C1CC[C@@H](C)C[C@@]1(O)CC(N)=O` (some centres undefined) had a TGI of more than 100 µM.
For the compound `COc1ccc(-c2c[nH]c(C(=O)O)c2-c2cc(OC)c(OC)c(OC)c2)cc1`, the GI50 is 3.08 µM and the TGI turned out to be 15.6 µM.
Regarding `C=C(C)C(=O)O[C@H]1CC(=C)[C@@H]2C[C@H](O)[C@](O)(CCl)[C@@H]2[C@H]2OC(=O)C(=C)[C@@H]21`, the GI50 was 1.98 µM and the TGI turned out to be 4.35 µM.
For `COc1cnc2c(c1)C(=O)c1c-2n(CCCn2ccnc2)c(=O)c2cc(F)ccc12`, in that order: 0.0245 µM and 0.195 µM.
Taken in the same sequence, the figures for `CCC[CH2][Sn]1([CH2]CCC)[O]C(=O)c2cccnc2[O]1` were 1.87 µM and 4 µM.
For `COC1CC(OS(=O)(=O)c2ccc([N+](=O)[O-])cc2)C(OC(=O)c2ccccc2)C(C)O1` (centres undefined), the TGI is more than 100 µM.
The same measure, in the same setting: the result for `CCOc1ccccc1N1C(=O)C(=O)C(c2nc3ccccc3o2)C(=O)C1=O` reads more than 100 µM.
Take `C=C1C(=O)O[C@H]2[C@H]1CC/C(COC(=O)NCc1cn(C)c3ccccc13)=C\CC[C@@]1(C)O[C@@H]21`: the GI50 was 1.37 µM and the TGI amounted to 2.7 µM.
Turning to `CCS(CC)(CC)CC1CCCC2=CCC(P(=O)(c3ccccc3)c3ccccc3)CC21` (centres undefined), the TGI turned out to be 27.3 µM.
As for `COc1ccc2n[se]nc2c1`, the TGI was 54.3 µM.
The same measure, in the same setting: under `Cn1cc(C(=O)NCCC(=N)N)cc1NC(=O)C1=[N+](C)C=C(NC(=O)c2cccc(C(=O)NC3=CC(C(=O)Nc4cc(C(=O)NCCC(=N)N)cn4C)=[N+](C)C3)c2)C1` stands more than 100 µM.

Another assay relates to HS 578T breast. The assay can be described thus: NCI tumour cell line growth inhibition, 48 h.
In the case of `COc1ccc(-c2c[nH]c(C(=O)O)c2-c2cc(OC)c(OC)c(OC)c2)cc1`, the GI50 is 3.42 µM and the TGI is more than 100 µM.
As for `C=C(C)C(=O)O[C@H]1CC(=C)[C@@H]2C[C@H](O)[C@](O)(CCl)[C@@H]2[C@H]2OC(=O)C(=C)[C@@H]21`, the GI50 is 11.6 µM and the TGI worked out at 46.1 µM.
On to `COc1cnc2c(c1)C(=O)c1c-2n(CCCn2ccnc2)c(=O)c2cc(F)ccc12`, for which the GI50 was 0.504 µM and the TGI was more than 100 µM.
As for `C=C1C(=O)O[C@H]2[C@H]1CC/C(COC(=O)NCc1cn(C)c3ccccc13)=C\CC[C@@]1(C)O[C@@H]21`, the GI50 was 3.54 µM and the TGI was determined as 35.7 µM.

A further assay relates to SK-OV-3 ovarian. The assay is described as follows: NCI tumour cell line growth inhibition, 48 h.
As to `CCN(CC)c1c(C(=O)/C=C/c2ccc(OC)cc2)c(-c2ccccc2)nn(C)c1=O`, the TGI was more than 100 µM.
`CN1C(=Nc2ccccc2)SC1=Nc1ccccc1` returned a TGI of more than 100 µM.
`Oc1ccccc1/C=C/c1csnn1`: the TGI is more than 100 µM.

For the origin of these results see PubChem BioAssay (NCI).
